Results reported in US20070128217A1 (priority 2003, published 2007).

What was measured:
[1] = tested on: recombinant human anti-SARS-CoV antibody 03-018; format: binding; set-up: Binding of antibody 03-018 to linear peptides of the N protein of SARS-CoV Urbani / Binding of antibody 03-018 to looped/cyclic peptides of the N protein of SARS-CoV Urbani: unit not given here
[2] = tested on: control sera (pooled serum of ten healthy LUMC hospital workers; commercial negative donor pooled serum from the Dutch bloodbank); format: binding, human; set-up: Binding of Control serum LUMC to linear peptides / Binding of Control serum Blood-bank to linear peptides / Binding of Control serum LUMC to looped peptides / Binding of Control Serum Blood-Bank to Looped peptides / Binding of Control serum LUMC to linear peptides of the protein M of SARS-CoV Urbani / Binding of Control serum Blood-bank to linear peptides of the protein M of SARS-CoV Urbani / Binding of Control serum LUMC to looped peptides of the protein M of SARS-CoV Urbani / Binding of Control Serum Blood-Bank to Looped peptides of the protein M of SARS-CoV Urbani: unit not given here
[3] = tested on: rabbit serum obtained by immunizing a rabbit with the SARS-CoV strain Frankfurt 1; format: binding; set-up: Binding of a rabbit serum to linear peptides / Binding of a rabbit serum to looped peptides / Rabbit serum linear peptides / Rabbit serum looped peptides / Binding of a rabbit serum to linear peptides of protein N of SARS-CoV Urbani (Rabbit serum linear peptides) / Binding of a rabbit serum to looped/cyclic peptides of protein N of SARS-CoV Urbani (Rabbit serum looped peptides): unit not given here
[4] = tested on: antibodies in sera from SARS patients (sera 1a, 1b, 2, 6, 37, 62, London, SARS-yellow, SARS-green); format: binding, human; set-up: Binding of serum 6 to linear peptides of protein X1 of SARS-CoV Urbani / Binding of serum 37 to linear peptides of protein X1 of SARS-CoV Urbani / Binding of serum 6 to looped/cyclic peptide (PEPSCAN-ELISA) / Binding of serum 37 to looped/cyclic peptide (PEPSCAN-ELISA) / Binding of serum 37 to looped/cyclic peptides of protein X1 of SARS-CoV Urbani / Binding of serum 6 to linear peptides of protein X2 / Binding of serum 37 to linear peptides of protein X2 / Binding of serum 37 to looped/cyclic peptides of protein X2 of SARS-CoV Urbani / Binding of serum 6 to linear peptides of protein M of SARS-CoV Urbani / Binding of serum 37 to linear peptides of protein M of SARS-CoV Urbani / Binding of serum 6 to looped/cyclic peptides of protein M of SARS-CoV Urbani / Binding of serum 37 to looped/cyclic peptides of protein M of SARS-CoV Urbani / Binding of serum 6 to linear peptides of protein X3 of SARS-CoV Urbani / Binding of serum 37 to linear peptides of protein X3 of SARS-CoV Urbani / Binding of serum 37 to looped/cyclic peptides of protein X3 of SARS-CoV Urbani / Binding of serum 6 to linear peptides of protein X4 of SARS-CoV Urbani / Binding of serum 37 to linear peptides of protein X4 of SARS-CoV Urbani / Binding of serum 37 to looped/cyclic peptides of protein X4 of SARS-CoV Urbani / Binding of serum 6 to linear peptides of protein X5 of SARS-CoV Urbani / Binding of serum 37 to linear peptides of protein X5 of SARS-CoV Urbani / Binding of serum 37 to looped/cyclic peptides of protein X5 of SARS-CoV Urbani / Binding of serum 6 to linear peptides of protein N of SARS-CoV Urbani / Binding of serum 37 to linear peptides of protein N of SARS-CoV Urbani / Binding of serum 6 to linear peptide (PEPSCAN-ELISA) / Binding of serum 1a to looped/cyclic peptides of protein N of SARS-CoV Urbani / Binding of serum 1b to looped/cyclic peptides of protein N of SARS-CoV Urbani / Binding of serum 2 to looped/cyclic peptides of protein N of SARS-CoV Urbani / Binding of serum 6 to looped/cyclic peptides of protein N of SARS-CoV Urbani / Binding of serum 37 to looped/cyclic peptides of protein N of SARS-CoV Urbani / Binding of serum 62 to looped/cyclic peptides of protein N of SARS-CoV Urbani / Binding of serum London to looped/cyclic peptides of protein N of SARS-CoV Urbani / Binding of serum SARS-green to looped/cyclic peptides of protein N of SARS-CoV Urbani: unit not given here

Sequence	Binding of antibody 03-018 to linear peptides of the N protein of SARS-CoV Urbani [1]	Binding of antibody 03-018 to looped/cyclic peptides of the N protein of SARS-CoV Urbani [1]	Binding of a rabbit serum to linear peptides of protein N of SARS-CoV Urbani (Rabbit serum linear peptides) [3]	Binding of a rabbit serum to looped/cyclic peptides of protein N of SARS-CoV Urbani (Rabbit serum looped peptides) [3]	Binding of serum 1a to linear peptides of protein N of SARS-CoV Urbani [4]	Binding of serum 1a to looped/cyclic peptides of protein N of SARS-CoV Urbani [4]	Binding of serum 1b to linear peptides of protein N of SARS-CoV Urbani [4]	Binding of serum 1b to looped/cyclic peptides of protein N of SARS-CoV Urbani [4]	Binding of serum 2 to linear peptides of protein N of SARS-CoV Urbani [4]	Binding of serum 2 to looped/cyclic peptides of protein N of SARS-CoV Urbani [4]	Binding of serum 6 to linear peptides of protein N of SARS-CoV Urbani [4]	Binding of serum 6 to looped/cyclic peptides of protein N of SARS-CoV Urbani [4]	Binding of serum 37 to linear peptides of protein N of SARS-CoV Urbani [4]	Binding of serum 37 to looped/cyclic peptides of protein N of SARS-CoV Urbani [4]	Binding of serum 62 to linear peptides of protein N of SARS-CoV Urbani [4]	Binding of serum 62 to looped/cyclic peptides of protein N of SARS-CoV Urbani [4]	Binding of serum London to linear peptides of protein N of SARS-CoV Urbani [4]	Binding of serum London to looped/cyclic peptides of protein N of SARS-CoV Urbani [4]	Binding of serum SARS-green to linear peptides of protein N of SARS-CoV Urbani [4]	Binding of serum SARS-green to looped/cyclic peptides of protein N of SARS-CoV Urbani [4]	further results
IRQGTDYKHWPQIAQ	0.1	0.2	0.1	0.3	0.2	0.4	0.1	0.2	0.2	0.4	0.2	0.2	0.7	0.6	0.6	0.6	0.9	0.4	0.3	0.3	Binding of Control Serum Blood-Bank to Looped peptides [2]: 0.5; Binding of Control serum Blood-bank to linear peptides [2]: 0.7; Binding of Control serum LUMC to linear peptides [2]: 0.7; Binding of Control serum LUMC to looped peptides [2]: 0.6; Binding of serum SARS-yellow to linear peptides of protein N of SARS-CoV Urbani [4]: 0.6; Binding of serum SARS-yellow to looped/cyclic peptides of protein N of SARS-CoV Urbani [4]: 0.4
GANKEGIVWVATEGA	0.1	0.2	0.2	0.5	0.2	0.2	0.1	0.1	0.2	0.2	0.1	0.1	0.7	0.5	0.6	0.3	0.4	0.3	0.2	0.2	Binding of Control Serum Blood-Bank to Looped peptides [2]: 0.4; Binding of Control serum Blood-bank to linear peptides [2]: 0.5; Binding of Control serum LUMC to linear peptides [2]: 0.5; Binding of Control serum LUMC to looped peptides [2]: 0.5; Binding of serum SARS-yellow to linear peptides of protein N of SARS-CoV Urbani [4]: 0.6; Binding of serum SARS-yellow to looped/cyclic peptides of protein N of SARS-CoV Urbani [4]: 0.4
ANKEGIVWVATEGAL	0.1	0.2	0.1	0.3	0.2	0.4	0.1	0.3	0.2	0.3	0.2	0.2	0.8	0.6	0.7	0.5	0.4	0.3	0.4	0.4	Binding of Control Serum Blood-Bank to Looped peptides [2]: 0.5; Binding of Control serum Blood-bank to linear peptides [2]: 0.6; Binding of Control serum LUMC to linear peptides [2]: 0.6; Binding of Control serum LUMC to looped peptides [2]: 0.6; Binding of serum SARS-yellow to linear peptides of protein N of SARS-CoV Urbani [4]: 0.7; Binding of serum SARS-yellow to looped/cyclic peptides of protein N of SARS-CoV Urbani [4]: 0.6
YKHWPQIAQFAPSAS	0.1	0.2	0.1	0.5	0.3	0.5	0.1	0.3	0.2	0.5	0.2	0.3	0.8	0.7	0.7	0.7	0.6	0.5	0.4	0.4	Control Serum Blood-Bank Looped peptides [2]: 0.8; Control serum Blood-bank linear peptides [2]: 0.9; Control serum LUMC linear peptides [2]: 0.7; Control serum LUMC looped peptides [2]: 0.8; Binding of serum SARS-yellow to linear peptides of protein N of SARS-CoV Urbani [4]: 0.7; Binding of serum SARS-yellow to looped/cyclic peptides of protein N of SARS-CoV Urbani [4]: 0.6
